# Measured values: US12077503B2, “Substituted cyclic amides and their use as herbicides” (FMC CORPORATION, priority 2015, dated 2024)
# What was measured:
# Format in all cases: in vivo
# Kochia (Kochia scoparia) [1] = experiment: Test A preemergence; details: Bassia scoparia, pre-emergence, 240 h, Preemergence
# In short: (§1)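 Each rating is a visual injury score from 0 to 100 given about 10 d after treatment, judged against untreated controls kept alongside in the greenhouse. In loam soil–sand blend, seeds got a preemergence directed soil spray, while postemergence plants were 2 to 10 cm tall at spraying.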
# [2] = test system: barnyardgrass (Echinochloa crus-galli); experiment: Test A preemergence; details: Echinochloa crus-galli, pre-emergence, 240 h, Preemergence
# In short: as §1
# [3] = test system: giant foxtail (Setaria faberii); experiment: Test A preemergence; details: Setaria faberi, pre-emergence, 240 h, Preemergence
# In short: as §1
# [4] = test system: pigweed (Amaranthus retroflexus); experiment: Test A preemergence; details: Amaranthus retroflexus, pre-emergence, 240 h, Preemergence
# [5] = test system: ragweed (common ragweed, Ambrosia elatior); experiment: Test A preemergence; details: Ambrosia artemisiifolia, pre-emergence, 240 h, Preemergence
# In short: as §1
# [6] = test system: ryegrass, Italian (Italian ryegrass, Lolium multiflorum); experiment: Test A preemergence; details: Lolium multiflorum, pre-emergence, 240 h, Preemergence
# In short: as §1
# Kochia (Kochia scoparia) [7] = experiment: Test A postemergence; details: Bassia scoparia, post-emergence, 240 h, Postemergence, read-out: Kochia plant response rating (0 to 100 scale)
# In short: as §1
# [8] = test system: barnyardgrass (Echinochloa crus-galli); experiment: Test A postemergence; details: Echinochloa crus-galli, post-emergence, 240 h, Postemergence
# In short: as §1
# [9] = test system: blackgrass (Alopecurus myosuroides); experiment: Test A postemergence; details: Alopecurus myosuroides, post-emergence, 240 h, Postemergence, read-out: Blackgrass plant response rating (0 to 100 scale)
# In short: as §1
# corn (Zea mays) = experiment: Test A postemergence; details: Zea mays, post-emergence, 240 h, Postemergence, read-out: Corn plant response rating (0 to 100 scale)
# In short: as §1
# [10] = test system: giant foxtail (Setaria faberii); experiment: Test A postemergence; details: Setaria faberi, post-emergence, 240 h, Postemergence, read-out: Foxtail, Giant plant response rating (0 to 100 scale)
# In short: as §1
# [11] = test system: pigweed (Amaranthus retroflexus); experiment: Test A postemergence; details: Amaranthus retroflexus, post-emergence, 240 h, Postemergence, read-out: Pigweed plant response rating (0 to 100 scale)
# In short: as §1
# [12] = test system: ragweed (common ragweed, Ambrosia elatior); experiment: Test A postemergence; details: Ambrosia artemisiifolia, post-emergence, 240 h, Postemergence, read-out: Ragweed plant response rating (0 to 100 scale)
# In short: as §1
# [13] = test system: ryegrass, Italian (Italian ryegrass, Lolium multiflorum); experiment: Test A postemergence; details: Lolium multiflorum, post-emergence, 240 h, Postemergence, read-out: Ryegrass, Italian plant response rating (0 to 100 scale)
# In short: as §1
# [14] = test system: wheat (Triticum aestivum); experiment: Test A postemergence; details: Triticum aestivum, post-emergence, 240 h, Postemergence, read-out: Wheat plant response rating (0 to 100 scale)
# In short: as §1
# [15] = test system: barnyardgrass (Echinochloa crus-galli); experiment: Test B flooded paddy test; details: Echinochloa crus-galli, 360 h, Flood, 250 g ai/ha; visually evaluated after 13 to 15 d; read-out: Plant response rating, Barnyardgrass (0 to 100 scale where 0 is no effect and 100 is complete control)
# In short: (§2)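 Percent control, visually estimated after 13–15 d in the greenhouse on a 0–100 basis, compares treated pots with untreated ones; compound was put into paddy water 3 cm above the soil when plants had two leaves.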
# [16] = test system: ducksalad (Heteranthera limosa); experiment: Test B flooded paddy test; details: Heteranthera limosa, 360 h, Flood, 250 g ai/ha; visually evaluated after 13 to 15 d; read-out: Plant response rating, Ducksalad (0 to 100 scale where 0 is no effect and 100 is complete control)
# In short: as §2
# rice (Oryra sativa) = experiment: Test B flooded paddy test; details: Oryza sativa, 360 h, Flood, 250 g ai/ha; visually evaluated after 13 to 15 d; read-out: Plant response rating, Rice (0 to 100 scale where 0 is no effect and 100 is complete control)
# In short: as §2
# [17] = test system: sedge, umbrella (small-flower umbrella sedge, Cyperus difformis); experiment: Test B flooded paddy test; details: Cyperus difformis, 360 h, Flood, 250 g ai/ha; visually evaluated after 13 to 15 d; read-out: Plant response rating, Sedge, Umbrella (0 to 100 scale where 0 is no effect and 100 is complete control)
# In short: as §2
# [18] = 125 g ai/ha, visual rating about 10 d after treatment
# [19] = 31 g ai/ha, 0 is no effect, 100 is complete control
smiles,measurement,setting,value
CN1C[C@H](c2ccc3c(c2)OC(F)(F)O3)[C@@H](C(=O)Nc2ccc(F)nc2F)C1=O [Compound 1350],pest or weed control at 31 g/ha,"Kochia (Kochia scoparia) [1]; 31 g ai/ha, 0 to 100 scale where 0 is no effect and 100 is complete control, read-out: Kochia plant response rating",30%
same,pest or weed control at 125 g/ha,"Kochia (Kochia scoparia) [1]; 125 g ai/ha, 0 to 100 scale (0 no effect, 100 complete control), read-out: Plant response rating, Kochia",70%
same,pest or weed control at 31 g/ha,"[2]; 31 g ai/ha, 0 to 100 scale where 0 is no effect and 100 is complete control, read-out: Barnyardgrass plant response rating",90%
same,pest or weed control at 125 g/ha,"[2]; 125 g ai/ha, 0 to 100 scale (0 no effect, 100 complete control), read-out: Plant response rating, Barnyardgrass",90%
same,pest or weed control at 31 g/ha,"[3]; 31 g ai/ha, 0 to 100 scale where 0 is no effect and 100 is complete control, read-out: Foxtail, Giant plant response rating",100%
same,pest or weed control at 125 g/ha,"[3]; 125 g ai/ha, 0 to 100 scale (0 no effect, 100 complete control), read-out: Plant response rating, Foxtail, Giant",100%
same,pest or weed control at 31 g/ha,"[4]; 31 g ai/ha, 0 to 100 scale where 0 is no effect and 100 is complete control, read-out: Pigweed plant response rating",70%
same,pest or weed control at 125 g/ha,"[4]; 125 g ai/ha, 0 to 100 scale (0 no effect, 100 complete control), read-out: Plant response rating, Pigweed",90%
same,pest or weed control at 31 g/ha,"[5]; 31 g ai/ha, 0 to 100 scale where 0 is no effect and 100 is complete control, read-out: Ragweed plant response rating",50%
same,pest or weed control at 125 g/ha,"[5]; 125 g ai/ha, 0 to 100 scale (0 no effect, 100 complete control), read-out: Plant response rating, Ragweed",80%
same,pest or weed control at 31 g/ha,"[6]; 31 g ai/ha, 0 to 100 scale where 0 is no effect and 100 is complete control, read-out: Ryegrass, Italian plant response rating",30%
same,pest or weed control at 125 g/ha,"[6]; 125 g ai/ha, 0 to 100 scale (0 no effect, 100 complete control), read-out: Plant response rating, Ryegrass, Italian",30%
same,pest or weed control at 125 g/ha,Kochia (Kochia scoparia) [7]; [18],70%
same,pest or weed control at 31 g/ha,Kochia (Kochia scoparia) [7]; [19],50%
same,pest or weed control at 125 g/ha,"[8]; 125 g ai/ha, visual rating about 10 d after treatment, read-out: Barnyardgrass plant response rating (0 to 100 scale, 0 no effect, 100 complete control)",90%
same,pest or weed control at 31 g/ha,"[8]; 31 g ai/ha, 0 is no effect, 100 is complete control, read-out: Barnyardgrass plant response rating (0 to 100 scale)",60%
same,pest or weed control at 125 g/ha,[9]; [18],50%
same,pest or weed control at 31 g/ha,[9]; [19],0%
same,plant injury at 125 g/ha,corn (Zea mays); [18],50%
same,plant injury at 31 g/ha,corn (Zea mays); [19],30%
same,pest or weed control at 125 g/ha,[10]; [18],90%
same,pest or weed control at 31 g/ha,[10]; [19],70%
same,pest or weed control at 125 g/ha,[11]; [18],70%
same,pest or weed control at 31 g/ha,[11]; [19],30%
same,pest or weed control at 125 g/ha,[12]; [18],60%
same,pest or weed control at 31 g/ha,[12]; [19],0%
same,pest or weed control at 125 g/ha,[13]; [18],20%
same,pest or weed control at 31 g/ha,[13]; [19],20%
same,plant injury at 125 g/ha,[14]; [18],50%
same,plant injury at 31 g/ha,[14]; [19],20%
same,pest or weed control at 250 g/ha,[15],90%
same,pest or weed control at 250 g/ha,[16],90%
same,pest or weed control at 250 g/ha,rice (Oryra sativa),0%
same,pest or weed control at 250 g/ha,[17],0%
